How the values were obtained:
[1] = target: Cyclin-dependent kinase 4 (Homo sapiens) (UniProt P11802); conditions: Compound concentration 1000.0 nM
[2] = target: AP2-associated protein kinase 1 (Homo sapiens) (UniProt Q2M2I8); conditions: Compound concentration 1000.0 nM
[3] = target: Serine/threonine-protein kinase LATS1 (Homo sapiens) (UniProt O95835); conditions: Compound concentration 1000.0 nM
[4] = target: Ribosomal protein S6 kinase alpha-3 (Homo sapiens) (UniProt P51812); conditions: Compound concentration 1000.0 nM
Sequence of Ribosomal protein S6 kinase alpha-3 (Homo sapiens) (P51812 whole entry): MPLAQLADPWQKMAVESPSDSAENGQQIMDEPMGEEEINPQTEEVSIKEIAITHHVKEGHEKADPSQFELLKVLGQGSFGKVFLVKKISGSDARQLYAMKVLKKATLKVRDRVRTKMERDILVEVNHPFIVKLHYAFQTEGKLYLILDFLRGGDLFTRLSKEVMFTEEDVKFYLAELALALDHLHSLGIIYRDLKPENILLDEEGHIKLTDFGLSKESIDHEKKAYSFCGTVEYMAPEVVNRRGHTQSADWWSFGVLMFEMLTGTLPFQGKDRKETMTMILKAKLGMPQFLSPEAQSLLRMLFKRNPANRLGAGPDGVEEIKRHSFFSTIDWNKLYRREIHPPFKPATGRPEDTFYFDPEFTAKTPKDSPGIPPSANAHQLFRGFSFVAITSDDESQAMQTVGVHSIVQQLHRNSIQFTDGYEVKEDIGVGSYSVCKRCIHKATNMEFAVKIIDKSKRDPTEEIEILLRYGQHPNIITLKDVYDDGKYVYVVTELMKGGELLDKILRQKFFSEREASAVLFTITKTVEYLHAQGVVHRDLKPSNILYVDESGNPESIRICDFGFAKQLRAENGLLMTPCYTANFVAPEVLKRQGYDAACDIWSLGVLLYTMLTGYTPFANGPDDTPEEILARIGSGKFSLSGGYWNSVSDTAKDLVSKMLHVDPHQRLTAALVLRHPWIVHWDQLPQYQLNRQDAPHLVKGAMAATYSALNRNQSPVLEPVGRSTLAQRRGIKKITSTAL

[5] = target: Aurora kinase C (Homo sapiens) (UniProt Q9UQB9); conditions: Compound concentration 1000.0 nM
[6] = target: Fibroblast growth factor receptor 2 (Homo sapiens) (UniProt P21802); conditions: Compound concentration 1000.0 nM
[7] = system: Mast/stem cell growth factor receptor Kit (Homo sapiens), P10721 [D816H]; conditions: Compound concentration 1000.0 nM
[8] = target: Serine/threonine-protein kinase Nek10 (Homo sapiens) (UniProt Q6ZWH5); conditions: Compound concentration 1000.0 nM
Sequence of Serine/threonine-protein kinase Nek10 (Homo sapiens) (Q6ZWH5 whole entry): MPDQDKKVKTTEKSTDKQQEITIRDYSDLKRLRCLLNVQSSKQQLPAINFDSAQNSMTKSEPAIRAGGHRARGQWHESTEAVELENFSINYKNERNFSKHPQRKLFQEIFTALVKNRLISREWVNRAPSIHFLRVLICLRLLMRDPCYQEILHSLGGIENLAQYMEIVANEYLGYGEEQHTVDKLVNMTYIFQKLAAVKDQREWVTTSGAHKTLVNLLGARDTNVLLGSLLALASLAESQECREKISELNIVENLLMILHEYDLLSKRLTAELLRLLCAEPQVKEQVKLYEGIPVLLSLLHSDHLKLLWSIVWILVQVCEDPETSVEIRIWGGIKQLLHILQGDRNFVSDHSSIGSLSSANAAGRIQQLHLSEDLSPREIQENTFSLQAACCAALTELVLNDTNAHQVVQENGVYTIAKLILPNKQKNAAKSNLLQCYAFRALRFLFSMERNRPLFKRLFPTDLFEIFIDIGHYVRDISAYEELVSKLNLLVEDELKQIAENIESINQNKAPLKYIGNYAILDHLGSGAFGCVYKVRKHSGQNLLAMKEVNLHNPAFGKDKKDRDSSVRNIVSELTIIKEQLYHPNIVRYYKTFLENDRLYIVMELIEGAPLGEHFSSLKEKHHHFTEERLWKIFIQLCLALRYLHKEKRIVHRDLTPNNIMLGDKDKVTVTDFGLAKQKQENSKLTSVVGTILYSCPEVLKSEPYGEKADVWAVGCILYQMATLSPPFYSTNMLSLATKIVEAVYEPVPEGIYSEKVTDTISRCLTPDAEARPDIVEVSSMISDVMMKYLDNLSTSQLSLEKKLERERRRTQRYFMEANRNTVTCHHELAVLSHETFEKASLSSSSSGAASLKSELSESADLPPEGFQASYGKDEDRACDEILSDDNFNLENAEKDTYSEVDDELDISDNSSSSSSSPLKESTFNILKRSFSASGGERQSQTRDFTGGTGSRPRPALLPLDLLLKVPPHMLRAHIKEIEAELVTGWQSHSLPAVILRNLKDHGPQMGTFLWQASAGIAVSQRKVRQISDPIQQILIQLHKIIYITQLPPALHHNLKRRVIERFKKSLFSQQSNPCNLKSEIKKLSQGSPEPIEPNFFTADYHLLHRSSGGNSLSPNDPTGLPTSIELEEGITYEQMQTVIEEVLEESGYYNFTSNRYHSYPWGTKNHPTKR

[9] = target: Ribosomal protein S6 kinase alpha-6 (Homo sapiens) (UniProt Q9UK32); conditions: Compound concentration 1000.0 nM
[10] = target: Ephrin type-B receptor 3 (Homo sapiens) (UniProt P54753); conditions: Compound concentration 1000.0 nM
[11] = target: Mitogen-activated protein kinase kinase kinase 2 (Homo sapiens) (UniProt Q9Y2U5); conditions: Compound concentration 1000.0 nM
[12] = target: Tyrosine-protein kinase JAK2 (Homo sapiens) (UniProt O60674); conditions: Compound concentration 1000.0 nM
[13] = target: Cyclin-dependent kinase 3 (Homo sapiens) (UniProt Q00526); conditions: Compound concentration 1000.0 nM
Sequence of Cyclin-dependent kinase 3 (Homo sapiens) (Q00526 whole entry, looked up, canonical isoform): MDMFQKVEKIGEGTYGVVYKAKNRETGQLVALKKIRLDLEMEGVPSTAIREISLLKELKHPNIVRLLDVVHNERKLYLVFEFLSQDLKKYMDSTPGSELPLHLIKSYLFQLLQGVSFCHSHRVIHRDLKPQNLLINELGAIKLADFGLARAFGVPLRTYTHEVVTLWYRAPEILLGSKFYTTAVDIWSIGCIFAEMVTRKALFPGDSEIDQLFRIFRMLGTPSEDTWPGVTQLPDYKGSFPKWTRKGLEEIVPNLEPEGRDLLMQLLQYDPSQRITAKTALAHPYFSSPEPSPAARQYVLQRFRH

[14] = target: Casein kinase I isoform delta (Homo sapiens) (UniProt P48730); conditions: Compound concentration 1000.0 nM
[15] = target: TGF-beta receptor type-2 (Homo sapiens) (UniProt P37173); conditions: Compound concentration 1000.0 nM
[16] = target: Serine/threonine-protein kinase MRCK beta (Homo sapiens) (UniProt Q9Y5S2); conditions: Compound concentration 1000.0 nM
[17] = target: Serine/threonine-protein kinase tousled-like 1 (Homo sapiens) (UniProt Q9UKI8); conditions: Compound concentration 1000.0 nM
[18] = target: Cyclin-dependent kinase 11A (Homo sapiens) (UniProt Q9UQ88); conditions: Compound concentration 1000.0 nM
[19] = target: cGMP-dependent protein kinase 1 (Homo sapiens) (UniProt Q13976); conditions: Compound concentration 1000.0 nM
[20] = target: Serine/threonine-protein kinase RIO2 (Homo sapiens) (UniProt Q9BVS4); conditions: Compound concentration 1000.0 nM
[21] = target: Rhodopsin kinase GRK7 (Homo sapiens) (UniProt Q8WTQ7); conditions: Compound concentration 1000.0 nM
[22] = system: Receptor-type tyrosine-protein kinase FLT3 (Homo sapiens), P36888 [D835Y]; conditions: Compound concentration 1000.0 nM
[23] = system: Epidermal growth factor receptor (Homo sapiens), P00533 [UNDEFINED MUTATION]; conditions: Compound concentration 1000.0 nM
[24] = target: Serine/threonine-protein kinase Nek11 (Homo sapiens) (UniProt Q8NG66); conditions: Compound concentration 1000.0 nM
[25] = target: Histamine H3 receptor (Homo sapiens) (UniProt Q9Y5N1); conditions: Compound concentration 10.0 uM
[26] = target: Serine/threonine-protein kinase MRCK alpha (Homo sapiens) (UniProt Q5VT25); conditions: Compound concentration 1000.0 nM
[27] = target: Inhibitor of nuclear factor kappa-B kinase subunit beta (Homo sapiens) (UniProt O14920); conditions: Compound concentration 1000.0 nM
[28] = target: Leucine-rich repeat serine/threonine-protein kinase 2 (Homo sapiens) (UniProt Q5S007); conditions: Compound concentration 1000.0 nM
[29] = target: Ribosomal protein S6 kinase alpha-2 (Homo sapiens) (UniProt Q15349); conditions: Compound concentration 1000.0 nM
[30] = system: Mast/stem cell growth factor receptor Kit (Homo sapiens), P10721 [L576P]; conditions: Compound concentration 1000.0 nM
[31] = target: Muscarinic acetylcholine receptor M3 (Homo sapiens) (UniProt P20309); conditions: Compound concentration 10.0 uM
[32] = target: Cyclin-dependent kinase 9 (Homo sapiens) (UniProt P50750); conditions: Compound concentration 1000.0 nM
[33] = target: Macrophage colony-stimulating factor 1 receptor (Homo sapiens) (UniProt P07333); conditions: Compound concentration 1000.0 nM
Sequence of Macrophage colony-stimulating factor 1 receptor (Homo sapiens) (P07333 whole entry): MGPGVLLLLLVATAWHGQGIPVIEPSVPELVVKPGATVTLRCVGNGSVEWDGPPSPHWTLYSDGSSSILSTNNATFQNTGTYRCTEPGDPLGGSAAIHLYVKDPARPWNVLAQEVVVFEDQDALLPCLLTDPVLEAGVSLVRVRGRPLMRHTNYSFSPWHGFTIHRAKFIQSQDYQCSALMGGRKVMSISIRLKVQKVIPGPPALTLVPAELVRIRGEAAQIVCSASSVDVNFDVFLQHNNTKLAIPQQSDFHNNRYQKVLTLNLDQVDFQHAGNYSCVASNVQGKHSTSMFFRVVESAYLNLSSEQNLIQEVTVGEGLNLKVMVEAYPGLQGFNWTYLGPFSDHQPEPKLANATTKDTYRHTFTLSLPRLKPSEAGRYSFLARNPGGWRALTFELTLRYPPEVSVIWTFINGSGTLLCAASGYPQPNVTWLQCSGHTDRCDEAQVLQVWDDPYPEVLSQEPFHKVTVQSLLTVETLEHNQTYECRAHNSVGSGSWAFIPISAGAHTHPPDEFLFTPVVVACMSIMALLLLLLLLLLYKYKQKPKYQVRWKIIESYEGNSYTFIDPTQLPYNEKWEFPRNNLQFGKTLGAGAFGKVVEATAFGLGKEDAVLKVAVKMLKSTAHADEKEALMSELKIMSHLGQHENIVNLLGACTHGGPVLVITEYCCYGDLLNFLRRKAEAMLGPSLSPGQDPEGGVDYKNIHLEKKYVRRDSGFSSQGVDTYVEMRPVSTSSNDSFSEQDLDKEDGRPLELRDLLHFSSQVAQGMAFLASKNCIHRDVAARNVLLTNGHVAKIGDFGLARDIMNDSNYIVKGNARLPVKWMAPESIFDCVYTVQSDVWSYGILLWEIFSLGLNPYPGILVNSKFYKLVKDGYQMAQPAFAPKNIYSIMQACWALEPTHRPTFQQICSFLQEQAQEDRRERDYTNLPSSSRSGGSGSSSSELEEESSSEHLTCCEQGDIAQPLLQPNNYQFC

[34] = target: Myosin light chain kinase (Homo sapiens) (UniProt Q32MK0); conditions: Compound concentration 1000.0 nM
[35] = target: Wee1-like protein kinase 2 (Homo sapiens) (UniProt P0C1S8); conditions: Compound concentration 1000.0 nM
[36] = target: Leukocyte tyrosine kinase receptor (Homo sapiens) (UniProt P29376); conditions: Compound concentration 1000.0 nM
[37] = target: Ankyrin repeat and protein kinase domain-containing protein 1 (Homo sapiens) (UniProt Q8NFD2); conditions: Compound concentration 1000.0 nM
[38] = target: Glycogen synthase kinase-3 alpha (Homo sapiens) (UniProt P49840); conditions: Compound concentration 1000.0 nM
[39] = target: MAP kinase-interacting serine/threonine-protein kinase 1 (Homo sapiens) (UniProt Q9BUB5); conditions: Compound concentration 1000.0 nM
Sequence of MAP kinase-interacting serine/threonine-protein kinase 1 (Homo sapiens) (Q9BUB5 whole entry, looked up): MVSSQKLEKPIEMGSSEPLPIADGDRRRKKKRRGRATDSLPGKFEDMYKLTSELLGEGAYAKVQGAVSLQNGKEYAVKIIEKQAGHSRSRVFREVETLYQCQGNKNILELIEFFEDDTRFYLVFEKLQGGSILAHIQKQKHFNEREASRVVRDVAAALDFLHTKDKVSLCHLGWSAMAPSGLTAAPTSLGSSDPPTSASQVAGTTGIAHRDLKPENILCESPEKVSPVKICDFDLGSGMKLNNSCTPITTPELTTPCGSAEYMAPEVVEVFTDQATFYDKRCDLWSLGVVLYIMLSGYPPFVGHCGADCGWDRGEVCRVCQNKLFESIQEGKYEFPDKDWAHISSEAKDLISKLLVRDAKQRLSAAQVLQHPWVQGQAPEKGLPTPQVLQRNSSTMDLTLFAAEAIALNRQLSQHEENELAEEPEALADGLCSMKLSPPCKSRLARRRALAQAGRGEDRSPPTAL

[40] = target: TGF-beta receptor type-1 (Homo sapiens) (UniProt P36897); conditions: Compound concentration 1000.0 nM
[41] = target: Serine/threonine-protein kinase Nek3 (Homo sapiens) (UniProt P51956); conditions: Compound concentration 1000.0 nM
[42] = target: Ribosomal protein S6 kinase alpha-3 (Homo sapiens) (UniProt P51812); conditions: Compound concentration 1000.0 nM; remark: listed apart in the source
[43] = target: Serine/threonine-protein kinase Sgk2 (Homo sapiens) (UniProt Q9HBY8); conditions: Compound concentration 1000.0 nM
[44] = target: Dual specificity protein kinase CLK3 (Homo sapiens) (UniProt P49761); conditions: Compound concentration 1000.0 nM
[45] = target: Misshapen-like kinase 1 (Homo sapiens) (UniProt Q8N4C8); conditions: Compound concentration 1000.0 nM
[46] = target: Vascular endothelial growth factor receptor 3 (Homo sapiens) (UniProt P35916); conditions: Compound concentration 1000.0 nM
Sequence of Vascular endothelial growth factor receptor 3 (Homo sapiens) (P35916 whole entry): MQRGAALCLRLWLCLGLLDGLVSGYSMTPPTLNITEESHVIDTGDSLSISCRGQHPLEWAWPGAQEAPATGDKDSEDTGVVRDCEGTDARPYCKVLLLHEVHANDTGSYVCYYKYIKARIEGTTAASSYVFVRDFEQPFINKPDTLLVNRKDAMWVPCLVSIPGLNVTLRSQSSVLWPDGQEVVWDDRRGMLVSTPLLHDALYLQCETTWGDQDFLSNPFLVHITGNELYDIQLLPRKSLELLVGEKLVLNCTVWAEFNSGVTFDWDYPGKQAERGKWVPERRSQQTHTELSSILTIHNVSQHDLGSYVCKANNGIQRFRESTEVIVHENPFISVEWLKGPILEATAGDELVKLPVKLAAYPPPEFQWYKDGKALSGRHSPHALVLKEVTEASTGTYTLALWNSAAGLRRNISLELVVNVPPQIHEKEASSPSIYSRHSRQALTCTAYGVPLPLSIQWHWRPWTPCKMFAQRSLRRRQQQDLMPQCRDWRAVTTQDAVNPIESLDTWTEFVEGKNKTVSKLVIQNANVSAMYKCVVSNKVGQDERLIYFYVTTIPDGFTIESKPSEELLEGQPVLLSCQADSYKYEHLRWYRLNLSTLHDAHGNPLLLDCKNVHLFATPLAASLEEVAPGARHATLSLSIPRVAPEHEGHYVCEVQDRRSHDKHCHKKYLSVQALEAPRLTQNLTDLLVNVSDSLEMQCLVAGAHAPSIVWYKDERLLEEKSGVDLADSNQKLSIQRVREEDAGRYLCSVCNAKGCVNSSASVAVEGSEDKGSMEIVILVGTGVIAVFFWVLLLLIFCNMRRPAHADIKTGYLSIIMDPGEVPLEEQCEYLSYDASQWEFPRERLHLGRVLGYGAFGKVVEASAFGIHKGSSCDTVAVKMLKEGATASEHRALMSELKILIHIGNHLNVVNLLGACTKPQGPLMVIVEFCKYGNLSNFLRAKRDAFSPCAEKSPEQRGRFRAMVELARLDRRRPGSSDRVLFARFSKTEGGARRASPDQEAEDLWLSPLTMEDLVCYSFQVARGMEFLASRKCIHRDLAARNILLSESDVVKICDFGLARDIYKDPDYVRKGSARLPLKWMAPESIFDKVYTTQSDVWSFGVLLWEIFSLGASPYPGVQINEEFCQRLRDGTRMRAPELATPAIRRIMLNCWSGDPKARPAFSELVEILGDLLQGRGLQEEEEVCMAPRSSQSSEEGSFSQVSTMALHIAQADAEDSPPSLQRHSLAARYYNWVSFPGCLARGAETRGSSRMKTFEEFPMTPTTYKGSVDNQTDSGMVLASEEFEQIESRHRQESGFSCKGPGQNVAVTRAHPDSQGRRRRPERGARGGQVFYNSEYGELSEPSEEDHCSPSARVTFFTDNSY

## O=C(Nc1cccnn1)N1CCC(=Cc2cccc(Oc3ccc(C(F)(F)F)cn3)c2)CC1
[1]
  residual activity: 100%
[2]
  residual activity: 74%
[3]
  residual activity: 100%
[4]
  residual activity: 100%
[5]
  residual activity: 100%
[6]
  residual activity: 96%
[7]
  residual activity: 100%
[8]
  residual activity: 100%
[9]
  residual activity: 100%
[10]
  residual activity: 81%
[11]
  residual activity: 100%
[12]
  residual activity: 100%
[13]
  residual activity: 100%
[14]
  residual activity: 100%
[15]
  residual activity: 76%
[16]
  residual activity: 100%
[17]
  residual activity: 100%
[18]
  residual activity: 82%
[19]
  residual activity: 100%
[20]
  residual activity: 100%
[21]
  residual activity: 100%
[22]
  residual activity: 100%
[23]
  residual activity: 100%
[24]
  residual activity: 100%
[25]
  inhibition: 8.73%
[26]
  residual activity: 95%
[27]
  residual activity: 83%
[28]
  residual activity: 99%
[29]
  residual activity: 100%
[30]
  residual activity: 0%
[31]
  inhibition: 27.5%
[32]
  residual activity: 93%
[33]
  residual activity: 100%
[34]
  residual activity: 100%
[35]
  residual activity: 77%
[36]
  residual activity: 74%
[37]
  residual activity: 96%
[38]
  residual activity: 100%
[39]
  residual activity: 100%
[40]
  residual activity: 61%
[41]
  residual activity: 100%
[42]
  residual activity: 100%
[43]
  residual activity: 100%
[44]
  residual activity: 100%
[45]
  residual activity: 100%
[46]
  residual activity: 80%

## O=C(Nc1cccnn1)N1CC(C/C=C/c2cncc(Oc3ccc(C(F)(F)F)cn3)n2)C1
[1]
  residual activity: 86%
[2]
  residual activity: 100%
[3]
  residual activity: 91%
[4]
  residual activity: 73%
[5]
  residual activity: 100%
[6]
  residual activity: 100%
[7]
  residual activity: 74%
[8]
  residual activity: 100%
[9]
  residual activity: 89%
[10]
  residual activity: 100%
[11]
  residual activity: 79%
[12]
  residual activity: 88%
[13]
  residual activity: 100%
[14]
  residual activity: 100%
[15]
  residual activity: 100%
[16]
  residual activity: 100%
[17]
  residual activity: 98%
[18]
  residual activity: 100%
[19]
  residual activity: 100%
[20]
  residual activity: 77%
[21]
  residual activity: 85%
[22]
  residual activity: 100%
[23]
  residual activity: 95%
[24]
  residual activity: 100%
[25]
  inhibition: 17.3%
[26]
  residual activity: 100%
[27]
  residual activity: 94%
[28]
  residual activity: 90%
[29]
  residual activity: 100%
[30]
  residual activity: 88%
[31]
  inhibition: 0.26%
[32]
  residual activity: 100%
[33]
  residual activity: 87%
[34]
  residual activity: 85%
[35]
  residual activity: 100%
[36]
  residual activity: 100%
[37]
  residual activity: 73%
[38]
  residual activity: 92%
[39]
  residual activity: 67%
[40]
  residual activity: 100%
[41]
  residual activity: 100%
[42]
  residual activity: 89%
[43]
  residual activity: 74%
[44]
  residual activity: 100%
[45]
  residual activity: 100%
[46]
  residual activity: 100%

From ChEMBL document CHEMBL4507297, “Data for DCP probe PF-04457845” (2021)
